Experimental data published in patent US20250230155A1 (Vanderbilt University, priority 2021, published 2025).

Target: T1, human mAChR M4 (Homo sapiens, UniProt P08173)
T1 construct: expressed in transfected cells
T1 sequence (P08173 1-479): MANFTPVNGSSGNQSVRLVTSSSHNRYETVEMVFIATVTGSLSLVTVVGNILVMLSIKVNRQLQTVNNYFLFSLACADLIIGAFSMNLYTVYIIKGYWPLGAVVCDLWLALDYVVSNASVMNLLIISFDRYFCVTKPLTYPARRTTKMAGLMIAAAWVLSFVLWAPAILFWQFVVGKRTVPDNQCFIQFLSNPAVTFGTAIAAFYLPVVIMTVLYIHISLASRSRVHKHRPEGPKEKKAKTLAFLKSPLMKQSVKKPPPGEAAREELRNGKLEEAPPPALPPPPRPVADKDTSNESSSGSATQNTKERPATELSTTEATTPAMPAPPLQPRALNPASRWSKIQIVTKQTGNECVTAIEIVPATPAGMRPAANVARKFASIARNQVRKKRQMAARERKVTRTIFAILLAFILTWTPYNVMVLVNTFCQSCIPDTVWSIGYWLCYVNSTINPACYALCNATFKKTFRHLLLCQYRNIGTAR
Experiment: mAChR M4 cell-based functional assay (calcium mobilization, CHO-K1 hM4-Gqi5 cells)
Conditions: for Emax at 30 µM: CHO-K1, % ACh maximum at 30 μM, human M4; for EC50: positive allosteric modulator activity, increase in the EC20 acetylcholine response, CHO-K1 hM4-Gqi5 cells, read-out: Human M4 EC50
Summary of the method: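 CHO-K1 cells stably expressing human M4 with chimeric Gqi5, loaded with Fluo-4 AM; compounds given as 11-point 1:3 curves and calcium flux read on FDSS at 1 Hz. Acetylcholine EC20 added at 144 s, EC80 at 230 s; agonist, PAM (EC20 potentiation) and antagonist (EC80 inhibition) EC50/Emax from four-parameter fits.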

Row | Structure (SMILES) | Emax at 30 µM [%] | EC50 [nM]
1 | Cc1cc(C(=O)NC23CC(F)(C2)C3)cnc1N1CCc2ncc(-c3cn(C)nc3C)cc2C1 [Example 477, 6-(3-(1,3-dimethyl-1H-pyrazol-4-yl)-7,8-dihydro-1,6-naphthyridin-6(5H)-yl)-N-(3-fluorobicyclo[1.1.1]pentan-1-yl)-5-methylnicotinamide] | 80 | 2470
2 | Cc1nn(C)cc1-c1cnc2c(c1)CN(c1nc(NC3CCOC3)nc(C)c1C)CC2 (stereo not drawn) [compound 273, 4-(3-(1,3-dimethyl-1H-pyrazol-4-yl)-7,8-dihydro-1,6-naphthyridin-6(5H)-yl)-5,6-dimethyl-N-(tetrahydrofuran-3-yl)pyrimidin-2-amine] | 92 | 639
3 | Cc1nc(C(=O)N2CCOCC2)c(C)c(N2CCc3ncc(C(F)(F)F)cc3C2)n1 [compound 221, (2,5-dimethyl-6-(3-(trifluoromethyl)-7,8-dihydro-1,6-naphthyridin-6(5H)-yl)pyrimidin-4-yl)(morpholino)methanone] | 25 | ≥ 10000
4 | Cc1cc(C#N)nnc1N1CCc2ncc(-c3cnn(C4CC4)c3)cc2C1 [Example 361, 6-(3-(1-cyclopropyl-1H-pyrazol-4-yl)-7,8-dihydro-1,6-naphthyridin-6(5H)-yl)-5-methylpyridazine-3-carbonitrile] | 115 | 786
5 | Cc1cc(C(=O)NCc2csc3ccccc23)cnc1N1CCc2ncc(-c3cn(C)nc3C)cc2C1 [Example 452, N-(benzo[b]thiophen-3-ylmethyl)-6-(3-(1,3-dimethyl-1H-pyrazol-4-yl)-7,8-dihydro-1,6-naphthyridin-6(5H)-yl)-5-methylnicotinamide] | 89 | 1790
6 | Cc1cc(C(=O)N2CCc3cnccc3C2)nnc1N1CCc2ncc(C(F)(F)F)cc2C1 [Example 498, (3,4-dihydro-2,6-naphthyridin-2(1H)-yl)(5-methyl-6-(3-(trifluoromethyl)-7,8-dihydro-1,6-naphthyridin-6(5H)-yl)pyridazin-3-yl)methanone] | 85 | 3170
7 | Cc1cc(C#N)cnc1N1CCc2ncc(OCCCOc3ccccc3)cc2C1 [Example 432, 5-methyl-6-(3-(3-phenoxypropoxy)-7,8-dihydro-1,6-naphthyridin-6(5H)-yl)nicotinonitrile] | 48 | 6800
8 | COc1nc(C)nc(N2CCc3ncc(-c4cn(C)nc4C)cc3C2)c1C [compound 196, 3-(1,3-dimethylpyrazol-4-yl)-6-(6-methoxy-2,5-dimethyl-pyrimidin-4-yl)-7,8-dihydro-5H-1,6-naphthyridine] | 70 | 1170
9 | Cc1cc(C(=O)NCc2csc3ccccc23)cnc1N1CCc2ncc(C(F)(F)F)cc2C1 [Example 447, N-(benzo[b]thiophen-3-ylmethyl)-5-methyl-6-(3-(trifluoromethyl)-7,8-dihydro-1,6-naphthyridin-6(5H)-yl)nicotinamide] | 97 | 1640
10 | Cc1cc(C(=O)N2CCc3cccnc3C2)nnc1N1CCc2ncc(C(F)(F)F)cc2C1 [Example 500, (5,8-dihydro-1,7-naphthyridin-7(6H)-yl)(5-methyl-6-(3-(trifluoromethyl)-7,8-dihydro-1,6-naphthyridin-6(5H)-yl)pyridazin-3-yl)methanone] | 92 | 1790
11 | Cc1cc(C#N)nnc1N1Cc2cc(N3CCOCC3)cnc2C(C)C1 (stereo not drawn) [Example 404, 5-methyl-6-(8-methyl-3-morpholino-7,8-dihydro-1,6-naphthyridin-6(5H)-yl)pyridazine-3-carbonitrile] | 72 | 901
12 | Cc1nn(C)cc1-c1cnc2c(c1)CN(c1ncc(C(N)=O)cc1C(F)(F)F)CC2 [Example 487, 6-(3-(1,3-dimethyl-1H-pyrazol-4-yl)-7,8-dihydro-1,6-naphthyridin-6(5H)-yl)-5-(trifluoromethyl)nicotinamide] | 38 | 2880

Further compounds by falling EC50, results first:

Row | Emax at 30 µM [%] | EC50 [nM] | Structure (SMILES)
13 | 103 | 635 | Cc1cc(C(=O)N2CCN(C)CC2)nnc1N1CCc2ncc(N3CCCn4nccc43)cc2C1 [Example 514, (6-(3-(6,7-dihydropyrazolo[1,5-a]pyrimidin-4(5H)-yl)-7,8-dihydro-1,6-naphthyridin-6(5H)-yl)-5-methylpyridazin-3-yl)(4-methylpiperazin-1-yl)methanone]
14 | 61 | 621 | Cc1c(C#N)nnc(N2CCc3ncc(C(C)(O)C(F)(F)F)cc3C2)c1C (stereo not drawn) [Example 425, 4,5-dimethyl-6-(3-(1,1,1-trifluoro-2-hydroxypropan-2-yl)-7,8-dihydro-1,6-naphthyridin-6(5H)-yl)pyridazine-3-carbonitrile]
15 | 78 | 468 | Cc1cc(C(=O)NCc2ccncc2)cnc1N1CCc2ncc(-c3cn(C)nc3C)cc2C1 [Example 482, 6-(3-(1,3-dimethyl-1H-pyrazol-4-yl)-7,8-dihydro-1,6-naphthyridin-6(5H)-yl)-5-methyl-N-(pyridin-4-ylmethyl)nicotinamide]
16 | 71 | 215 | Cc1cc(C(=O)Nc2ccncc2)cnc1N1CCc2ncc(-c3cn(C)nc3C)cc2C1 [Example 450, 6-(3-(1,3-dimethyl-1H-pyrazol-4-yl)-7,8-dihydro-1,6-naphthyridin-6(5H)-yl)-5-methyl-N-(pyridin-4-yl)nicotinamide]
17 | 94 | 200 | Cc1nc(Cl)nc(N2CCc3ncc(C(F)(F)F)cc3C2)c1C [compound 253, 6-(2-chloro-5,6-dimethylpyrimidin-4-yl)-3-(trifluoromethyl)-5,6,7,8-tetrahydro-1,6-naphthyridine]
18 | 81 | 193 | Cc1cc(C(=O)N2CC3(C2)CC(F)(F)C3)nnc1N1CCc2ncc(N3CCO[C@H](C)C3)cc2C1 [Example 574, (R)-(6,6-difluoro-2-azaspiro[3.3]heptan-2-yl)(5-methyl-6-(3-(2-methylmorpholino)-7,8-dihydro-1,6-naphthyridin-6(5H)-yl)pyridazin-3-yl)methanone]
19 | 88 | 160 | Cc1cc(C#N)cnc1N1CCc2ncc(Oc3cc(F)ccc3F)cc2C1 [Example 351, 6-(3-(2,5-difluorophenoxy)-7,8-dihydro-1,6-naphthyridin-6(5H)-yl)-5-methylnicotinonitrile]
20 | 75 | 108 | [2H]C([2H])([2H])c1cnc2c(c1)CN(c1nnc(C(=O)NC3(c4cccnc4)CC3)cc1C)CC2 [Example 580, 5-methyl-6-(3-(methyl-d3)-7,8-dihydro-1,6-naphthyridin-6(5H)-yl)-N-(1-(pyridin-3-yl)cyclopropyl)pyridazine-3-carboxamide]
21 | 72 | 94 | Cc1cc(C#N)cnc1N1CCc2ncc(N3CCCn4nc(C5CC5)cc43)cc2C1 [Example 415, 6-(3-(2-cyclopropyl-6,7-dihydropyrazolo[1,5-a]pyrimidin-4(5H)-yl)-7,8-dihydro-1,6-naphthyridin-6(5H)-yl)-5-methylnicotinonitrile]
22 | 103 | 76 | Cc1cc(C#N)cnc1N1CCc2ncc(N3CCC(C)n4nccc43)cc2C1 (stereo not drawn) [Example 386, 5-methyl-6-(3-(7-methyl-6,7-dihydropyrazolo[1,5-a]pyrimidin-4(5H)-yl)-7,8-dihydro-1,6-naphthyridin-6(5H)-yl)nicotinonitrile]
23 | 109 | 74 | Cc1cc(C(=O)NC2(C#N)CC2)nnc1N1CCc2ncc(C(F)(F)F)cc2C1 [Example 523, N-(1-cyanocyclopropyl)-5-methyl-6-(3-(trifluoromethyl)-7,8-dihydro-1,6-naphthyridin-6(5H)-yl)pyridazine-3-carboxamide]
24 | 79 | 69 | Cc1nc(C(F)(F)F)nc(N2CCc3ncc(N4CCCn5nccc54)cc3C2)c1C [compound 258, 3-(6,7-dihydropyrazolo[1,5-a]pyrimidin-4(5H)-yl)-6-(5,6-dimethyl-2-(trifluoromethyl)pyrimidin-4-yl)-5,6,7,8-tetrahydro-1,6-naphthyridine]
25 | 98 | 65 | Cc1nc(Cl)c(C)c(N2CCc3ncc(Nc4ccnn4C)cc3C2)n1 [compound 212, 6-(6-chloro-2,5-dimethylpyrimidin-4-yl)-N-(1-methyl-1H-pyrazol-5-yl)-5,6,7,8-tetrahydro-1,6-naphthyridin-3-amine]
26 | 102 | 53 | Cc1cc(C(=O)N2CC(C(C)(C)O)C2)nnc1N1CCc2ncc(N3CCCn4nccc43)cc2C1 [Example 528, (6-(3-(6,7-dihydropyrazolo[1,5-a]pyrimidin-4(5H)-yl)-7,8-dihydro-1,6-naphthyridin-6(5H)-yl)-5-methylpyridazin-3-yl)(3-(2-hydroxypropan-2-yl)azetidin-1-yl)methanone]
27 | 111 | 44 | Cc1cc(C(=O)N2CC(F)C2)nnc1N1CCc2ncc(N3CCCn4nccc43)cc2C1 [Example 551, (6-(3-(6,7-dihydropyrazolo[1,5-a]pyrimidin-4(5H)-yl)-7,8-dihydro-1,6-naphthyridin-6(5H)-yl)-5-methylpyridazin-3-yl)(3-fluoroazetidin-1-yl)methanone]
